In data set [1] the test system is BM-MSCs. As to the kind of experiment: Alkaline phosphatase (ALP) assay. It counts as cell-based, human. From the text: In one embodiment, the BM-MSCs differentiate to the osteogenic lineage. The expression of osteocalcin is stained and imaged after 3 weeks of culture in osteogenic medium using confocal microscopy, as shown in FIG. 33. FIG. 33 is confocal images showing the expression of osteocalcin stained in green, and the cell nuclei stained in blue using DAPI. The scale bar in FIG. 33 is 100 μm. […] Additionally, the levels of alkaline phosphatase (ALP), an early osteogenic marker expressed by osteoblast cells, are also measured to confirm the commitment of BM-MSCs toward the osteogenic lineage. […] Furthermore, the ALP activity increased with time during the initial 2 weeks as an indicator of osteogenic differentiation. In FIG. 34, * means p<0.05, indicating statistical significance.
Alkaline phosphatase (ALP) was measured after 1 and 2 weeks of culture using an alkaline phosphatase substrate kit. At the end of each culture time, the scaffolds were washed by PBS and cells were lysed using 1% Triton X-100. Then, 80 μL of the cell lysate mixture was added to 50 μL of the para-nitrophenylphosphate (pNPP) substrate (5 mM) and incubated at room temperature for 2 h. The reaction was inhibited by the addition of a stop solution, and the absorbance was measured at 405 nm using a multimode plate reader (PHERAstar® FS, Germany).

Data set [2] relates to BM-MSCs. As to the kind of experiment: Alizarin red staining of mineralization. It counts as cell-based, human. An excerpt: Alizarin red staining (ARS) is used to detect calcium deposition. The BM-MSCs cultured in the different scaffolds in the osteogenic medium are stained by Alizarin red to confirm the mineralization process during osteogenic differentiation (FIGS. 4b and S11b). […] The scale bar in FIGS. 31 and 32 is 100 μm. […] This indicates the presence of calcium deposits.
After 14 days of culture, the media were removed and the cells were washed three times with PBS, fixed with 4% paraformaldehyde, and incubated for 15 min at room temperature.
After 14 days of culture, the media was removed and then, the cells were washed three times with PBS and then fixed with 4% paraformaldehyde and the cells incubated for 15 minutes at room temperature. Then, the cells were washed three times with Milli-Q® water. Then the Milli-Q® water was removed and 1 mL of 40 mM Alizarin Red Staining (pH=4.2) was added to each well. The scaffolds were incubated at room temperature for 20-30 min with gentle shaking. […] For the quantification of Alizarin Red Staining, 100 μL of 10% acetic acid was added to each well in a 48-well plate and incubated at room temperature for 30 minutes with gentle shaking. […] Finally, 50 μL of each tube was transferred to a 96-well plate, and the absorbance at 405 nm was read with a plate reader (PHERAstar® FS, Germany)

Data set [3] in a line: Oscillatory rheological test of peptide hydrogel stiffness (storage modulus G′). Format: physicochemical. Particulars: for Storage modulus: 1 rad/s, 0.1% strain. Here is the method:
Therefore, in one embodiment, the mechanical stiffness of each peptide hydrogel is assessed by the storage modulus (G′) at different concentrations.
The oscillatory rheological test was performed to determine the mechanical properties of the peptide hydrogels. The peptide hydrogels were measured on a TA Ares G2 rheometer with an 8 mm parallel-plate geometry and a 1.5 mm gap distance at a temperature of 22° C. All of the hydrogels were made inside a Sigmacote®-coated glass ring with 9 mm inner diameter 19 h prior to measurement. Six replicates with a volume of 150 μL were prepared for each sample. […]

The subject of data set [4] is MSCs. As to the kind of experiment: SEM of cell-matrix interaction. It counts as cell-based, human. The following applies: after 14 days of culture. Here is the method:
Scale bars are 5 and 10 μm, in the left and right panels respectively.
SEM was also used to determine the cell-matrix interaction. First, the cells encapsulated in hydrogels were fixed in 2.5% glutaraldehyde for overnight (4° C.) and then washed using PBS. The samples were subsequently incubated in 1% osmium tetroxide for one hour and washed with water. Afterwards, the dehydration was done by immersing them in increasing concentrations of ethanol: 30, 50, 70, 90 and 100%, 15 min each step. Then, the samples were processed in critical point dryer. The dried samples were then mounted and coated with 5 nm Ir thickness.

Data set [5] relates to HUVECs. As to the kind of experiment: In vitro angiogenesis study. Format: cell-based, human. Here is the method:
When bone deficiency occurs, it often causes blood vessel damage. Blood vessels provide the necessary components to repair the region of bone defects by transferring oxygen and nutrients.^107, 108 In one embodiment, the capability of IVFK and IVZK hydrogels to support angiogenesis is also evaluated using HUVECs and compared with collagen, which is an essential component of the ECM and is known to support the angiogenesis of endothelial cells,^23 because the capillary system is a crucial component in bone regeneration. Viability of HUVECs in IVZK scaffold after culturing for 24 h can be observed the bright field image as shown in FIG. 45 and confocal images as shown in FIG. 46. In FIG. 46, live cells are stained in green by Calcein-AM, while dead cells are stained red by Ethidium homodimer. In FIGS. 45 and 46, the scale bar is 100 μm. Furthermore, the angiogenesis ability of IVZK scaffold is also measured by the vessels junctions (FIG. 48), number of nodes (FIG. 49) and, in total vessels length (FIG. 47) for 5 different microscopic pictures. […] In FIG. 50, the scale bar is 100 μm.
Peptide hydrogel or collagen was placed in a 24-well plate, and human umbilical vein endothelial cells (HUVECs) at 40,000 cells/well were added on top of the peptide gel or collagen. Cells were cultured in endothelial growth media for 24 h. Cells were then investigated using an inverted microscope, and images were analyzed by ImageJ using the Angiogenesis Analyzer.

The mark [6] stands for this setting: hydrogel around 20 kPa (4 mg/mL) versus 50 kPa (8 mg/mL).
[7] abbreviates: 24 h, versus collagen positive control.

In the case of “Ac-Ile-Val-Phe-Lys-NH2 (Ac-IVFK-NH2) [aromatic self-assembling tetrapeptide forming hydrogel scaffold]”, the ALP activity result in data set [1] (after 7 days in osteogenic medium, versus collagen, p<0.05) is listed as “Significantly higher ALP activity”. Moreover, the ALP release result in data set [1] (setting [6]) is “higher ALP release than that at 50 kPa”. Besides, the “calcium content (Alizarin red-S quantification)” value in data set [2] (setting [6]) was “significantly higher calcium content than that at 50 kPa”. Also, in data set [2] (osteogenic medium, compared to the other scaffolds), the “Alizarin red-S (ARS) staining of mineral deposits” value is given as “most intense ARS staining”. Further, the stiffness result in data set [3] (peptide concentration 4 mg/mL) is on record as “around 20 kPa”; in data set [3] (peptide concentration 8 mg/mL), around 50 kPa. Moreover, the Storage modulus in data set [3] (peptide hydrogel 2 mg/mL) is recorded as 0.54 ± 0.06 kPa; in data set [3] (peptide hydrogel 3 mg/mL), 7.03 ± 0.19 kPa; in data set [3] (peptide hydrogel 4 mg/mL), 23.40 ± 0.88 kPa; in data set [3] (peptide hydrogel 6 mg/mL) it was 35.79 ± 0.95 kPa; in data set [3] (peptide hydrogel 8 mg/mL), 51.79 ± 4.73 kPa. The “cell morphology by SEM” value in data set [4] was “elongated spindlelike morphology”. Further, the junctions result in data set [5] (setting [7]) is reported as “no significant difference”. Besides, the nodes entry in data set [5] (setting [7]) is recorded as “no significant difference”. Also, the “total length of tubes” value in data set [5] (setting [7]) is on record as “no significant difference”. The “network formation of HUVECs” value in data set [5] (after 24 h of culture) is on record as “forms dense network structures”.
